# Data taken from DBAASP.
# How the values were obtained:
# Assay in all cases: ≥ marks a high value that may be exact or a test limit, other limits are often not marked, values filed in µg/mL are converted to µM
# [1] = test system: Streptococcus pneumoniae ATCC 49619
# [2] = test system: Staphylococcus aureus ATCC 25923
# [3] = test system: Escherichia coli ATCC 25922
# [4] = test system: Pseudomonas aeruginosa ATCC 27853
# [5] = test system: Bacillus subtilis ATCC 9372
# [6] = test system: Shigella dysenteriae ATCC 51302
# [7] = test system: Salmonella typhimurium ATCC 50013
# [8] = test system: Listeria monocytogenes CICC 21533
# [9] = test system: Shigella flexneri CICC 21534
# [10] = test system: Staphylococcus epidermidis LY8
# [11] = test system: Salmonella enterica subsp. enterica serovar Choleraesuis C78-1
# [12] = test system: Bacillus subtilis CICC 24434
# Escherichia coli E44813 = test system: Escherichia coli E44813
# [13] = test system: Salmonella typhimurium SL1344
# [14] = test system: Pasteurella multocida C48-3
# [15] = test system: Klebsiella aerogenes W03BG0067
# [16] = test system: Klebsiella oxytoca W99FI00049
# [17] = test system: Providencia stuartii W03FI0001
# [18] = test system: Pseudomonas aeruginosa VA463/98
# [19] = test system: Acinetobacter baumannii AB1MG
# [20] = test system: Acinetobacter baumannii AB7MG
# [21] = test system: Pseudomonas aeruginosa 891
# [22] = test system: Proteus mirabilis W99FI0089
# [23] = test system: Morganella morganii W03VA1342
# [24] = test system: Enterobacter cloacae W03AN0041
# [25] = test system: Proteus mirabilis W03VA1144
# [26] = test system: Serratia marcescens W99FI0111
# [27] = test system: Staphylococcus aureus MIU-68A
# Klebsiella pneumoniae = test system: Klebsiella pneumoniae
# [28] = test system: Pseudomonas aeruginosa 885149
# [29] = test system: Burkholderia cepacia SMC 71
# [30] = test system: Citrobacter freundii W99FI00007
# [31] = test system: Staphylococcus aureus ATCC 29213
# Escherichia coli = test system: Escherichia coli
# [32] = test system: Stenotrophomonas maltophilia PT4/99
# [33] = test system: Elizabethkingia meningoseptica CCUG 4310
# [34] = test system: Acinetobacter baumannii ATCC 19606
# [35] = test system: Escherichia coli D31 CGSC 5165
# [36] = test system: Staphylococcus aureus ATCC 35556
# [37] = test system: Pseudomonas aeruginosa ATCC 47085
# [38] = test system: Staphylococcus aureus SH1000
structure (smiles),measurement,setting,value
CC(C)C[C@H](NC(=O)[C@@H](NC(=O)CNC(=O)[C@H](C)NC(=O)[C@H](CC(C)C)NC(=O)[C@H](CS)NC(=O)[C@H](CCCN=C(N)N)NC(=O)[C@H](C)NC(=O)[C@H](CC(C)C)NC(=O)CN)[C@@H](C)O)C(=O)O [GLARCLAGTL],MIC,[1],16.4 µM
same,MIC,[2],65.7 µM
same,MIC,[3],8.21 µM
same,MIC,[4],8.21 µM
same,MIC,[5],8.21 µM
same,MIC,[6],16.4 µM
same,MIC,[7],16.4 µM
CC[C@H](C)[C@H](NC(=O)[C@@H](NC(=O)[C@H](Cc1ccccc1)NC(=O)[C@H](CCCCN)NC(=O)[C@@H]1CCCN1C(=O)[C@H](CCCCN)NC(=O)[C@H](CCC(N)=O)NC(=O)[C@@H]1CCCN1C(=O)[C@H](CCCN=C(N)N)NC(=O)[C@H](CCCN=C(N)N)NC(=O)[C@@H](NC(=O)[C@H](CCCN=C(N)N)NC(=O)[C@H](Cc1c[nH]c2ccccc12)NC(=O)[C@H](CC(C)C)NC(=O)[C@H](CCCN=C(N)N)NC(=O)[C@H](CC(=O)O)NC(=O)[C@@H](NC(=O)[C@@H](NC(=O)[C@@H](N)CCCN=C(N)N)[C@@H](C)CC)[C@@H](C)CC)C(C)C)C(C)C)C(=O)N[C@H](C(=O)N[C@@H](Cc1c[nH]c2ccccc12)C(=O)N[C@H](C(=O)N[C@@H](CCCN=C(N)N)C(=O)O)C(C)C)C(C)C [RIIDRLWRVRRPQKPKFVIVWVR],MIC,[8],20.7 µM
same,MIC,[9],24.9 µM
same,MIC,[2],0.0041 µM
same,MIC,[10],4.14 µM
same,MIC,[11],0.129 µM
same,MIC,[12],0.259 µM
same,MIC,Escherichia coli E44813,2.07 µM
same,MIC,[13],0.259 µM
same,MIC,[14],0.259 µM
CC[C@H](C)[C@H](NC(=O)[C@H](CCCCN)NC(=O)[C@H](CCCCN)NC(=O)[C@@H](N)CCC(N)=O)C(=O)N[C@@H](CCCN=C(N)N)C(=O)N[C@H](C(=O)N[C@@H](CCCN=C(N)N)C(=O)N[C@@H](CC(C)C)C(=O)N[C@@H](CO)C(=O)N[C@@H](C)C(=O)O)C(C)C [QKKIRVRLSA],MIC,[15],6.68 µM
same,MIC,[16],≥ 53.4 µM
same,MIC,[17],≥ 107 µM
same,MIC,[18],3.34 µM
same,MIC,[2],> 107 µM
same,MIC,[19],13.4 µM
same,MIC,[20],26.7 µM
same,MIC,[21],6.68 µM
same,MIC,[22],≥ 107 µM
same,MIC,[3],3.34 µM
same,MIC,[4],3.34 µM
same,MIC,[23],≥ 107 µM
same,MIC,[24],3.34 µM
same,MIC,[25],≥ 53.4 µM
same,MIC,[26],≥ 107 µM
same,MIC,[27],≥ 107 µM
same,MIC,Klebsiella pneumoniae,6.68 µM
same,MIC,[28],6.68 µM
same,MIC,[29],≥ 53.4 µM
same,MIC,[30],13.4 µM
same,MIC,[31],> 53.4 µM
same,MIC,Escherichia coli,6.68 µM
same,MIC,[32],≥ 107 µM
same,MIC,[33],≥ 107 µM
CC[C@H](C)[C@H](NC(=O)[C@H](CCCCN)NC(=O)CNC(=O)[C@H](CC(C)C)NC(=O)[C@@H](NC(=O)[C@H](C)NC(=O)[C@H](CCCCN)NC(=O)CNC(=O)[C@H](C)NC(=O)CNC(=O)[C@H](CCCCN)NC(=O)[C@H](CCSC)NC(=O)[C@H](CCCCN)NC(=O)[C@@H](NC(=O)[C@H](Cc1c[nH]c2ccccc12)NC(=O)[C@H](CC(C)C)NC(=O)[C@H](CCC(N)=O)NC(=O)[C@H](CCCCN)NC(=O)[C@H](CC(C)C)NC(=O)[C@@H](N)CC(C)C)[C@@H](C)O)C(C)C)C(=O)N[C@@H](CCCCN)C(=O)NCC(=O)N[C@@H](CC(C)C)C(=O)N[C@@H](CC(C)C)C(=O)O [LLKQLWTKMKGAGKAVLGKIKGLL],MIC,[34],0.94 µM
same,MIC,[35],0.94 µM
same,MIC,[36],1.88 µM
same,MIC,[37],7.5 µM
CC[C@H](C)[C@H](NC(=O)[C@H](CC(=O)O)NC(=O)[C@H](Cc1ccccc1)NC(=O)[C@H](CC(C)C)NC(=O)CN)C(=O)N[C@H](C(=O)N[C@@H](CCCCN)C(=O)N[C@@H](CCCCN)C(=O)N[C@@H](CC(C)C)C(=O)N[C@@H](CC(C)C)C(=O)N[C@@H](CCCCN)C(=O)N[C@@H](CC(C)C)C(=O)N[C@@H](CC(C)C)C(=O)N[C@@H](CCCCN)C(N)=O)C(C)C [GLFDIVKKLLKLLK],MIC,[38],≥ 100 µM
